We go through 24 compounds from patent publication US10323038B2, “Pyrazole compounds and methods of making and using same” (ABIDE THERAPEUTICS, INC., priority 2015, dated 2019).

Format in all cases: biochemical
Experiment [1] deals with FAAH (Mus musculus (Mouse), UniProt O08914). Kind of experiment: In vitro competitive activity-based protein profiling, FAAH (mouse). To be noted: for inhibition at 1 µM: read-out: FAAH % inh. 1 μM (mouse). A digest of the protocol: (§1)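 Residual MAGL and FAAH activity came from in-gel fluorescence after competition between inhibitor (30 min preincubation, 37° C) and the activity-based probe FP-Rh or HT-01 (30 min, 37° C) in mouse or human tissue or cell proteomes.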

The target of experiment [2] is MAGL (Mus musculus (Mouse), UniProt O35678). Put plainly: In vitro competitive activity-based protein profiling, MAGL (mouse). To be noted: for inhibition at 1 µM: read-out: MAGL % inh. 1 μM (mouse). A digest of the protocol:
as §1

In experiment [3] the target is MAGL (Homo sapiens (Human), UniProt Q99685). Kind of experiment: In vitro competitive activity-based protein profiling, MAGL (human). Conditions: 1 μM, human proteome; read-out: MAGL % inh. 1 μM (human). The protocol: (§2) In Vitro Competitive Activity-Based Protein Profiling.
(§3) Proteomes (mouse brain membrane fraction or cell lysates for mouse assays; human prefrontal cortex or cell membrane fractions for human assays) (50 μL, 1.0 mg/mL total protein concentration) were preincubated with varying concentrations of inhibitors at 37° C. After 30 min, FP—Rh or HT-01 (1.0 μL, 50 μM in DMSO) was added and the mixture was incubated for another 30 min at 37° C. Reactions were quenched with SDS loading buffer (15 μL-4×) and run on SDS-PAGE. Following gel imaging, serine hydrolase activity was determined by measuring fluorescent intensity of gel bands corresponding to MAGL and FAAH using ImageJ 1.43u software.

For experiment [4], the target named is FAAH (Homo sapiens (Human), UniProt O00519). Kind of experiment: In vitro competitive activity-based protein profiling, FAAH (human). To be noted: 1 μM, human proteome; read-out: FAAH % inh. 1 μM (human). The protocol:
as §2, §3

Chain of MAGL (Mus musculus (Mouse), UniProt O35678) (O35678 whole entry): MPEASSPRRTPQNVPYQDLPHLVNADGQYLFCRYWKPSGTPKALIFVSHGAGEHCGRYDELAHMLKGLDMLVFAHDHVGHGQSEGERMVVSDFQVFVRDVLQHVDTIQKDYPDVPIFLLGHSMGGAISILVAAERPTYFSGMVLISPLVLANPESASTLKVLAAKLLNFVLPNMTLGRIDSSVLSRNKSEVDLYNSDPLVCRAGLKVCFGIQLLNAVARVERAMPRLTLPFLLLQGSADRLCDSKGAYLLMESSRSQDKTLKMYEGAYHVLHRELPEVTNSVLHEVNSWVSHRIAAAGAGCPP
Chain of FAAH (Mus musculus (Mouse), UniProt O08914) (O08914 whole entry): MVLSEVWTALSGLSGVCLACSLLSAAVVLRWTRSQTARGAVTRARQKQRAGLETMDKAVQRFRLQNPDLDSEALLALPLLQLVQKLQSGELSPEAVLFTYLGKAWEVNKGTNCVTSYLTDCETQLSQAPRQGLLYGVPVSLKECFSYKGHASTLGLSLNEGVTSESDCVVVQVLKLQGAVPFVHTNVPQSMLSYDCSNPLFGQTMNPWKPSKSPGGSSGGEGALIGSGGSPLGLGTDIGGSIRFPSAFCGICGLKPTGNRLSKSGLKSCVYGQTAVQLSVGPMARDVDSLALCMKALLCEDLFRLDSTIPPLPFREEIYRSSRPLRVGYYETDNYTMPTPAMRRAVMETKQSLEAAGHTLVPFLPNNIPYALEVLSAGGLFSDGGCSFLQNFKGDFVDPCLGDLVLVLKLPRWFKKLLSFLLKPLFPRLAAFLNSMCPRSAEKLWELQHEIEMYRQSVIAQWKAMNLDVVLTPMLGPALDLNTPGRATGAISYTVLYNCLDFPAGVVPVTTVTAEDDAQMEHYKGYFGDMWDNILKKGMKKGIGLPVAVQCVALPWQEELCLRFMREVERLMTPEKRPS
Chain of MAGL (Homo sapiens (Human), UniProt Q99685) (Q99685 whole entry): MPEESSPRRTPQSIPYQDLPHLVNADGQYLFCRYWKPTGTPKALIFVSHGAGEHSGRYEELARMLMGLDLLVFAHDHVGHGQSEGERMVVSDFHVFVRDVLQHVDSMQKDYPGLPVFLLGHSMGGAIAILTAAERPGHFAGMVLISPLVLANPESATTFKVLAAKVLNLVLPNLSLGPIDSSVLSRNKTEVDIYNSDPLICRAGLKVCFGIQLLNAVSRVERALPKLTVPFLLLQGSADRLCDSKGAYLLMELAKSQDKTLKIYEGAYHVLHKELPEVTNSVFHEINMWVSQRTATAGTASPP
Chain of FAAH (Homo sapiens (Human), UniProt O00519) (O00519 whole entry): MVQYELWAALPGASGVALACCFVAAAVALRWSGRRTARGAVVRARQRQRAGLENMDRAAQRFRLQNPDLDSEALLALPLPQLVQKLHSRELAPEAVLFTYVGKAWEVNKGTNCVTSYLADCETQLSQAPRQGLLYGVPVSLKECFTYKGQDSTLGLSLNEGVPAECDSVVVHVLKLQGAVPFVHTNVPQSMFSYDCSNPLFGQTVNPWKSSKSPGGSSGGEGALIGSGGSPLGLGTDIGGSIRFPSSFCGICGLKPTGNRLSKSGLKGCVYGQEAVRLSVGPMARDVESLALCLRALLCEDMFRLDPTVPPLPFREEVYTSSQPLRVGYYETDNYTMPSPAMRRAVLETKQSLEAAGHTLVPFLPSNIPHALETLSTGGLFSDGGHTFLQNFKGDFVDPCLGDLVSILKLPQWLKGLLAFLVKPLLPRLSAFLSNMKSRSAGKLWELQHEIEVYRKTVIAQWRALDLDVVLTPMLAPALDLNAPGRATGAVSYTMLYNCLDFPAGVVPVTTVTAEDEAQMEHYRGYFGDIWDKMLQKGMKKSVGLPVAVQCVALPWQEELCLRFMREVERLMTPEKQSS

Turning to `CS(=O)(=O)Nc1cnn(C(=O)N2CCC3(CC2)CN(Cc2ccc(N4CCCC4)cc2C(F)(F)F)C3)c1` [Example 281, N-(1-(2-(4-(pyrrolidin-1-yl)-2-(trifluoromethyl)benzyl)-2,7-diazaspiro[3.5]nonane-7-carbonyl)-1H-pyrazol-4-yl)methanesulfonamide], the inhibition at 1 µM on FAAH [1] (1 μM) and on MAGL [2] (1 μM) was not below 75% each time.

In the case of `CN(Cc1ccc(N2CCCC2)cc1C(F)(F)F)[C@H]1C[C@@H]2CN(C(=O)n3cc(NS(C)(=O)=O)cn3)C[C@@H]2C1` [Example 282, N-(1-(trans-5-(methyl(4-(pyrrolidin-1-yl)-2-(trifluoromethyl)benzyl)amino)octahydrocyclopenta[c]pyrrole-2-carbonyl)-1H-pyrazol-4-yl) methanesulfonamide], the inhibition at 1 µM at FAAH [1] (1 μM) is not below 75%; at MAGL [2] (1 μM) it was 50 to 75%.

As for `CS(=O)(=O)Nc1cnn(C(=O)N2CCC3(CCN(Cc4ccc(Cl)c(Cl)c4)C3)C2)c1` (stereo not drawn) [Example 283, N-(1-(7-(3,4-dichlorobenzyl)-2,7-diazaspiro[4.4]nonane-2-carbonyl)-1H-pyrazol-4-yl)methanesulfonamide], the inhibition at 1 µM at MAGL [3] and on FAAH [4] was not below 75% each time.

Regarding `CS(=O)(=O)Nc1cnn(C(=O)N2CCC3(CCN(Cc4cc(Cl)ccc4C(F)(F)F)C3)C2)c1` (stereo not drawn) [Example 284, N-[1-[(7-[[5-chloro-2-(trifluoromethyl)phenyl]methyl]-2,7-diazaspiro[4.4]nonan-2-yl)carbonyl]-1H-pyrazol-4-yl]methanesulfonamide], the values for the inhibition at 1 µM at FAAH [1] (1 μM) and on MAGL [2] (1 μM) were not below 75% and 25 to 50%, respectively.

As for `CS(=O)(=O)Nc1cnn(C(=O)N2CCC3(CCN(Cc4ccc(N5CCCC5)cc4C(F)(F)F)C3)C2)c1` (stereo not drawn) [Example 285, N-(1-(7-(4-(pyrrolidin-1-yl)-2-(trifluoromethyl)benzyl)-2,7-diazaspiro[4.4]nonane-2-carbonyl)-1H-pyrazol-4-yl)methanesulfonamide], the inhibition at 1 µM at MAGL [3] and on FAAH [4] was not below 75% in each case.

Turning to `CS(=O)(=O)Nc1cnn(C(=O)N2CCC3(CCN(Cc4cc(Cl)cc(C(F)(F)F)c4)C3)C2)c1` (stereo not drawn) [Example 286, N-(1-(7-(3-chloro-5-(trifluoromethyl)benzyl)-2,7-diazaspiro[4.4]nonane-2-carbonyl)-1H-pyrazol-4-yl)methanesulfonamide], the values for the inhibition at 1 µM at FAAH [1] (1 μM) and at MAGL [2] (1 μM) were not below 75% and 25 to 50%, respectively.

Take `CS(=O)(=O)Nc1cnn(C(=O)N2CCC3(CCN(Cc4ccc(-c5nccs5)cc4Cl)C3)C2)c1` (stereo not drawn) [Example 287, N-(1-(7-(2-chloro-4-(thiazol-2-yl)benzyl)-2,7-diazaspiro[4.4]nonane-2-carbonyl)-1H-pyrazol-4-yl)methanesulfonamide]: the inhibition at 1 µM on FAAH [1] (1 μM) is not below 75%; at MAGL [2] (1 μM) it was 50 to 75%.

As to `CS(=O)(=O)Nc1cnn(C(=O)N2CCC3(CCN(Cc4cccc(Cl)c4Cl)C3)C2)c1` (stereo not drawn) [Example 288, N-(1-(7-(2,3-dichlorobenzyl)-2,7-diazaspiro[4.4]nonane-2-carbonyl)-1H-pyrazol-4-yl)methanesulfonamide], the inhibition at 1 µM on MAGL [3] and on FAAH [4] was not below 75% in each case.

With `CS(=O)(=O)Nc1cnn(C(=O)N2CCN(Cc3ccc(-c4cnccn4)cc3C(F)(F)F)CC2)c1` [Example 289, N-(1-(4-(4-(pyrazin-2-yl)-2-(trifluoromethyl)benzyl)piperazine-1-carbonyl)-1H-pyrazol-4-yl)methanesulfonamide], the inhibition at 1 µM at FAAH [1] (1 μM) is not below 75%; at MAGL [2] (1 μM), 25 to 50%.

Turning to `CS(=O)(=O)Nc1cnn(C(=O)N2CCN(Cc3ccc(-c4cncnc4)cc3C(F)(F)F)CC2)c1` [Example 290, N-(1-(4-(4-(pyrimidin-5-yl)-2-(trifluoromethyl)benzy1)piperazine-1-carbonyl)-1H-pyrazol-4-yl)methanesulfonamide], the inhibition at 1 µM on MAGL [3] and at FAAH [4] was not below 75% each time.

`CS(=O)(=O)Nc1cnn(C(=O)N2CCN(Cc3ccc(-c4nccs4)cc3C(F)(F)F)CC2)c1` [Example 291, N-(1-(4-(4-(thiazol-2-yl)-2-(trifluoromethyl)benzyl)piperazine-1-carbonyl)-1H-pyrazol-4-yl)methanesulfonamide]: the inhibition at 1 µM is not below 75% at FAAH [1] (1 μM) and 50 to 75% on MAGL [2] (1 μM).

In general, IC50 refers to the concentration that inhibits the measured activity by half. A low value points to greater potency. `CS(=O)(=O)Nc1cnn(C(=O)N2CCN(Cc3cc(Cl)ccc3C(F)(F)F)CC2)c1` [Example 293, N-(1-(4-(5-chloro-2-(trifluoromethyl)benzyl)piperazine-1-carbonyl)-1H-pyrazol-4-yl)methanesulfonamide]: the IC50 at FAAH [1] is 1000 to 10000 nM; at MAGL [2], not above 100 nM. Further, the results for the inhibition at 1 µM at FAAH [1] (1 μM) and on MAGL [2] (1 μM) were not below 75% and 50 to 75%, respectively.

Turning to `CS(=O)(=O)Nc1cnn(C(=O)N2CCN(Cc3cc(Cl)cc(C(F)(F)F)c3)CC2)c1` [Example 294, N-(1-(4-(3-chloro-5-(trifluoromethyl)benzyl)piperazine-1-carbonyl)-1H-pyrazol-4-yl)methanesulfonamide], the inhibition at 1 µM at FAAH [1] (1 μM) and on MAGL [2] (1 μM) was not below 75% in each case.

Take `CS(=O)(=O)Nc1cnn(C(=O)N2CCN(Cc3cc(N4CCCC4)cc(C(F)(F)F)c3)CC2)c1` [Example 295, N-(1-(4-(3-(pyrrolidin-1-yl)-5-(trifluoromethyl)benzyl)piperazine-1-carbonyl)-1H-pyrazol-4-yl)methanesulfonamide]: the inhibition at 1 µM on FAAH [1] (1 μM) and on MAGL [2] (1 μM) was not below 75% in each case.

`CS(=O)(=O)Nc1cnn(C(=O)N2CCN(Cc3cccc(Oc4ccc(Cl)cc4)c3)CC2)c1` [Example 296, N-(1-(4-(3-(4-chlorophenoxy)benzyl)piperazine-1-carbonyl)-1H-pyrazol-4-yl)methanesulfonamide]: the inhibition at 1 µM at FAAH [1] (1 μM) and at MAGL [2] (1 μM) was not below 75% throughout.

Take `CN(Cc1ccccc1C(F)(F)F)[C@H]1C[C@@H]2CN(C(=O)n3cc(NS(C)(=O)=O)cn3)C[C@@H]2C1` [Example 299, N-(1-(trans-5-(methyl(2-(trifluoromethyl)benzyl)amino)octahydrocyclopenta[c]pyrrole-2-carbonyl)-1H-pyrazol-4-yl)methanesulfonamide]: the inhibition at 1 µM at FAAH [1] (1 μM) and at MAGL [2] (1 μM) was not below 75% throughout.

For the compound `CS(=O)(=O)Nc1cnn(C(=O)N2CCN(Cc3ccc(-c4ccc(C(N)=O)nc4)cc3C(F)(F)F)CC2)c1` [Example 302], the inhibition at 1 µM was not below 75% at FAAH [1] (1 μM) and 25 to 50% at MAGL [2] (1 μM).

Take `CS(=O)(=O)Nc1cnn(C(=O)N2CCN(Cc3ccc(-c4ncco4)cc3C(F)(F)F)CC2)c1` [Example 303, N-(1-(4-(4-(oxazol-2-yl)-2-(trifluoromethyl)benzy)piperazine-1-carbonyl)-1H-pyrazol-4-yl)methanesulfonamide]: the IC50 on FAAH [1] was 1000 to 10000 nM; at MAGL [2] it was not above 100 nM. Besides, the results for the inhibition at 1 µM on FAAH [1] (1 μM) and on MAGL [2] (1 μM) were not below 75% and 50 to 75%, respectively.

Take `Cc1noc(-c2ccc(CN3CCN(C(=O)n4cc(NS(C)(=O)=O)cn4)CC3)c(C(F)(F)F)c2)n1` [Example 307, N-(1-(4-(4-(3-methyl-1,2,4-oxadiazol-5-yl)-2-(trifluoromethyl)benzyl)piperazine-1-carbonyl)-1H-pyrazol-4-yl)methanesulfonamide]: the inhibition at 1 µM at FAAH [1] (1 μM) is not below 75%; on MAGL [2] (1 μM), 25 to 50%.

Take `CS(=O)(=O)Nc1cnn(C(=O)N2CCN(Cc3ccc(-c4ccncn4)cc3C(F)(F)F)CC2)c1` [Example 309, N-(1-(4-(4-(pyrimidin-4-yl)-2-(trifluoromethyl)benzyl)piperazine-1-carbonyl)-1H-pyrazol-4-yl)methanesulfonamide]: the inhibition at 1 µM on FAAH [1] (1 μM) was not below 75%; at MAGL [2] (1 μM) it was 25 to 50%.

Turning to `CC(=O)Nc1cnn(C(=O)N2CCN(Cc3cc(Cl)ccc3C(F)(F)F)CC2)c1` [Example 314, N-(1-(4-(5-chloro-2-(trifluoromethyl)benzyl)piperazine-1-carbonyl)-1H-pyrazol-4-yl)acetamide], the inhibition at 1 µM at FAAH [1] (1 μM) and on MAGL [2] (1 μM) was not below 75% each time.

With `CC(=O)Nc1cnn(C(=O)N2CC3CN(Cc4cc(Cl)cc(C(F)(F)F)c4)CC3C2)c1` (stereo not drawn) [Example 315, N-(1-(5-(3-chloro-5-(trifluoromethyl)benzyl)octahydropyrrolo [3,4-c]pyrrole-2-carbonyl)-1H-pyrazol-4-yl)acetamide], the inhibition at 1 µM on FAAH [1] (1 μM) and at MAGL [2] (1 μM) was not below 75% throughout.

As to `C#Cc1ccc(CN2CCN(C(=O)n3cc(N(C)C(C)=O)cn3)CC2)cc1` [Example 317, N-(1-(4-(4-ethynylbenzyl)piperazine-1-carbonyl)-1H-pyrazol-4-yl)-N-methylacetamide], the inhibition at 1 µM on FAAH [1] (1 μM) and at MAGL [2] (1 μM) was not below 75% throughout.

On to “N-(1-(5-(3-(4- methoxyphenoxy)benzyl) octahydropyrrolo[3,4-c]pyrrole-2- carbonyl)-1H-pyrazol-4-yl)-N- methylacetamide [Example 243]”, for which the IC50 on FAAH [1] and at MAGL [2] was not above 100 nM each time. The “FAAH % inh. 1 μM (mouse)” value on FAAH [1] (1 μM) is reported as “A (A = % inhibition greater than or equal to 75%)”. The “MAGL % inh. 1 μM (mouse)” value at MAGL [2] (1 μM) was “A (A = % inhibition greater than or equal to 75%)”.
